# Laboratory results published in publication PMC9823088, “The oral selective estrogen receptor degrader GDC-0810 (ARN-810) in postmenopausal women with hormone receptor-positive HER2-negative (HR + /HER2 −) advanced/metastatic breast cancer” (Breast Cancer Research and Treatment, 2022).
# Test system: ER + (HER2 −) locally advanced or metastatic breast cancer
# Assay: Anti-tumor activity per RECIST v1.1 (best confirmed overall outcome, clinical benefit rate, progression-free survival), phase Ia/Ib/IIa study
# Type: in vivo, human
# From the text: This was a multi-institutional phase Ia/Ib/IIa, open-label, dose finding, safety, pharmacokinetics, and proof-of-concept study of GDC-0810 in women with ER + metastatic breast cancer. Phase Ia employed a standard 3 + 3 dose-escalation scheme. Phase Ib was dose escalation as part of combination treatment. Phase IIa explored the recommended phase 2 dose (RP2D) from phase Ia. The protocol was approved by institutional review boards (IRBs) at participating institutions. Written informed consent was obtained from patients prior to performing any procedures; the study was conducted in accordance with the principles of the Declaration of Helsinki and Good Clinical Practice.
# Blood samples were collected for pharmacokinetic assessments. Tumor assessments were performed at screening and every 8 weeks from cycle 1, day 1 (C1D1). Radiographic assessment of objective tumor response or disease progression was based on Response Evaluation Criteria in Solid Tumors (RECIST v1.1). Transvaginal ultrasound scans were performed to monitor endometrial thickness at screening, at every 6 months from C1D1, and at the end of treatment. Imaging with [^18F]-fluoroestradiol positron emission tomography (FES-PET) was performed to quantify ER expression in tumors and to assess for pharmacodynamic response. Further assessment details are provided in Supplementary Methods.
# Analyses of safety, pharmacokinetics, anti-tumor activity, and data from the FES-PET imaging correlative studies were planned. Confirmatory inferential analyses and imputation for missing data were not planned due to the exploratory nature of this study. Descriptive statistics were used to summarize patient data. The number of patients to be enrolled was dependent upon the observed safety and pharmacokinetic profile during dose escalations. The safety- and efficacy-evaluable population included patients who received at least one dose of the study drug. Safety was assessed through summaries of DLTs, AEs, changes in select laboratory test results, vital signs, ECGs, and changes in endometrial thickness. Objective response (with confirmation) and clinical benefit rates (CBR) were derived per RECIST v1.1 and summarized by dose level and cohort.
# CYP2B6 and CYP2C enzymes. No hormonal therapy, chemotherapy, immunotherapy, or experimental anti-cancer medications were permitted during the study. […]
# Tumor assessments were performed at screening and every 8 weeks from cycle-1, day-1 (C1D1). Radiographic assessment of objective tumor response or disease progression was based on Response Evaluation Criteria in Solid Tumors (RECIST v1.1). Transvaginal ultrasound scans were performed to monitor endometrial thickness at screening, at every 6 months from C1D1, and at the end of treatment. […]
# [1] = all patients, phase IIa A1, 600 mg QD, n = 19
# [2] = all patients, phase IIa A2, 600 mg QD, n = 10
# [3] = all patients, phase IIa B1, 600 mg QD, n = 53
# [4] = all patients, phase IIa B2, 600 mg QD, n = 19
# [5] = all patients, phase Ia cohorts 1–9, 100–800-mg BID, 300–400-mg QD, n = 41
# [6] = all patients, phase Ib C1, 400 mg QD + PALBO, n = 4
# [7] = all patients, phase Ib D1, 600 mg QD + LHRH-A, n = 6
# [8] = overall, 3 study phases (152 patients)
# [9] = patients (n = 77) with tumors harboring ESR1 mutations
# [10] = patients with tumors harboring ESR1 mutations
# [11] = tumors harboring ESR1 mutations, phase IIa A1, 600 mg QD, n = 19
# [12] = tumors harboring ESR1 mutations, phase IIa A2, 600 mg QD, n = 9
# [13] = tumors harboring ESR1 mutations, phase IIa B1, 600 mg QD, n = 20
# [14] = tumors harboring ESR1 mutations, phase IIa B2, 600 mg QD, n = 4
# [15] = tumors harboring ESR1 mutations, phase Ia cohorts 1–9, 100–800-mg BID, 300–400-mg QD, n = 23
# [16] = tumors harboring ESR1 mutations, phase Ib D1, 600 mg QD + LHRH-A, n = 2
compound,measurement,setting,value
CC/C(=C(/c1ccc(/C=C/C(=O)O)cc1)c1ccc2[nH]ncc2c1)c1ccc(F)cc1Cl [GDC-0810],CBR,17 patients in phase Ia previously treated with fulvestrant,35%
same,median time to event (median PFS),54 patients in study phases Ib/IIa with tumors harboring ESR1 mutations,3.5 months
same,median time to event (median PFS),111 patients in study phases Ib/IIa,3.5 months
same,Missing or unevaluable,[1],1 (5%) n (%)
same,Non-complete response/non-progressive disease,[1],5 (26%) n (%)
same,Partial response,[1],0 n (%)
same,Progressive disease,[1],9 (47%) n (%)
same,Stable disease,[1],4 (21%) n (%)
same,Missing or unevaluable,[2],2 (20%) n (%)
same,Non-complete response/non-progressive disease,[2],0 n (%)
same,Partial response,[2],0 n (%)
same,Progressive disease,[2],4 (40%) n (%)
same,Stable disease,[2],4 (40%) n (%)
same,Missing or unevaluable,[3],3 (6%) n (%)
same,Non-complete response/non-progressive disease,[3],8 (15%) n (%)
same,Partial response,[3],4 (8%) n (%)
same,Progressive disease,[3],21 (40%) n (%)
same,Stable disease,[3],17 (32%) n (%)
same,Missing or unevaluable,[4],0 n (%)
same,Non-complete response/non-progressive disease,[4],4 (21%) n (%)
same,Partial response,[4],0 n (%)
same,Progressive disease,[4],11 (58%) n (%)
same,Stable disease,[4],4 (21%) n (%)
same,Non-complete response/non-progressive disease,[5],0 n (%)
same,Partial response,[5],2 (5%) n (%)
same,Progressive disease,[5],12 (29%) n (%)
same,Stable disease,[5],26 (63%) n (%)
same,Missing or unevaluable,[6],0 n (%)
same,Non-complete response/non-progressive disease,[6],1 (25%) n (%)
same,Partial response,[6],0 n (%)
same,Progressive disease,[6],1 (25%) n (%)
same,Stable disease,[6],2 (50%) n (%)
same,Missing or unevaluable,[7],0 n (%)
same,Non-complete response/non-progressive disease,[7],1 (17%) n (%)
same,Partial response,[7],0 n (%)
same,Progressive disease,[7],3 (50%) n (%)
same,Stable disease,[7],2 (33%) n (%)
same,Progressive disease,overall population,40%
same,Stable disease,overall population,39%
same,missing/unevaluable,overall population,5%
same,non-complete response/non-progressive disease,overall population,13%
same,partial responses,overall population,4%
same,Progressive disease,[8],61 (40%) n (%)
same,Stable disease,[8],59 (39%) n (%)
same,non-complete response/non-progressive disease,[8],19 (13%) n (%)
same,partial responses,[8],6 (4%) n (%)
same,CBR,"overall, 3 study phases, n = 40",26%
same,Progressive disease,[9],29 (38%) n (%)
same,Stable disease,[9],32 (42%) n (%)
same,missing/unevaluable,[9],4 (5%) n (%)
same,non-complete response/non-progressive disease,[9],9 (12%) n (%)
same,partial responses,[9],3 (4%) n (%)
same,Progressive disease,[10],38%
same,Stable disease,[10],42%
same,missing/unevaluable,[10],5%
same,non-complete response/non-progressive disease,[10],12%
same,partial responses,[10],4%
same,CBR (responses or SD lasting ≥ 24 weeks),"phase Ia dose escalation, 16 patients",39%
same,Missing or unevaluable,phases Ib and IIa (n = 111),6 (5%) n (%)
same,"PD, best confirmed overall outcome",phases Ib and IIa (n = 111),49 (44%) n (%)
same,non-complete response or non-progressive disease (non CR/PD),phases Ib and IIa (n = 111),19 (17%) n (%)
same,CBR,"phases Ib combination treatments and IIa expansion cohorts (n = 111), n = 24",22%
same,CBR,"tumors harboring ESR1 mutations, phase Ib/IIa (8 of 54 patients)",15%
same,Missing or unevaluable,[11],1 (5%) n (%)
same,Non-complete response/non-progressive disease,[11],5 (26%) n (%)
same,Partial response,[11],0 n (%)
same,Progressive disease,[11],9 (47%) n (%)
same,Stable disease,[11],4 (21%) n (%)
same,Missing or unevaluable,[12],2 (22%) n (%)
same,Non-complete response/non-progressive disease,[12],0 n (%)
same,Partial response,[12],0 n (%)
same,Progressive disease,[12],4 (44%) n (%)
same,Stable disease,[12],3 (33%) n (%)
same,Missing or unevaluable,[13],1 (5%) n (%)
same,Non-complete response/non-progressive disease,[13],3 (15%) n (%)
same,Partial response,[13],1 (5%) n (%)
same,Progressive disease,[13],7 (35%) n (%)
same,Stable disease,[13],8 (40%) n (%)
same,Missing or unevaluable,[14],0 n (%)
same,Non-complete response/non-progressive disease,[14],1 (25%) n (%)
same,Partial response,[14],0 n (%)
same,Progressive disease,[14],2 (50%) n (%)
same,Stable disease,[14],1 (25%) n (%)
same,Missing or unevaluable,[15],0 n (%)
same,Non-complete response/non-progressive disease,[15],0 n (%)
same,Partial response,[15],2 (9%) n (%)
same,Progressive disease,[15],6 (26%) n (%)
same,Stable disease,[15],15 (65%) n (%)
same,Missing or unevaluable,[16],0 n (%)
same,Non-complete response/non-progressive disease,[16],0 n (%)
same,Partial response,[16],0 n (%)
same,Progressive disease,[16],1 (50%) n (%)
same,Stable disease,[16],1 (50%) n (%)
